For assay [1], the system named is human SKM-1 acute myeloid leukemia cells. Kind of assay: SKM-1 antiproliferation cell-based assay (ATPlite). To be noted: Homo sapiens, SKM-1, SKM-1 antiproliferation assay. The essentials:
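Log-phase cells in RPMI 1640/15% FBS were seeded at 34722 cells/mL and exposed for 4 days to nine-concentration DMSO serial dilutions in triplicate. Viability was read as ATP luminescence (ATPlite 1step), and IC50 values came from variable-slope non-linear regression.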

In assay [2] the target is T1, human BRD4 bromodomain II (Homo sapiens, UniProt O60885).
T1 construct: human BRD4 bromodomain II [based on Genbank NM_058243, residues 349-460]; host or cells: E. coli
Kind of assay: Bromodomain binding assay (AlphaScreen), BRD4 BDII. The note with it: BRD4 BDII AlphaScreen assay; read-out: BRD4 BD2 IC50. The essentials: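 Inhibition of acetyl-H4 peptide binding to human BRD4 bromodomains is measured by bead-based proximity (AlphaScreen) in pH 7.5 HEPES buffer containing 0.05% CHAPS and 0.1% BSA. Ten compound concentrations in 3-fold steps give competitive binding IC50s.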

By GI50 is commonly meant the concentration that inhibits growth by half. Low values mean more potent growth inhibition, high ones less potent growth inhibition. Broadly, the IC50 is the midpoint of a concentration-inhibition curve.

In the case of `Cc1cc(-c2ccc(-n3ccn(C)c3=O)c(Cl)c2)c(O)c(-c2cnnc(N3CCN(C(C)(C)C)CC3)c2)n1` [Example 1017, 1-(4-(2-(6-(4-(tert-butyl)piperazin-1-yl)pyridazin-4-yl)-3-hydroxy-6-methylpyridin-4-yl)-2-chlorophenyl)-3-methyl-1H-imidazol-2(3H)-one], the GI50 in assay [1] lay within 30 to 300 nM. Moreover, the IC50 in assay [2] is 1 to 10 nM.
`Cn1cc(-c2ccc(-n3ccn(C)c3=O)c(Cl)c2)c(O)c(-c2cccc(N3CCN(C(C)(C)C)CC3)c2)c1=O` [Example 1018, 3-(3-(4-(tert-butyl)piperazin-1-yl)phenyl)-5-(3-chloro-4-(3-methyl-2-oxo-2,3-dihydro-1H-imidazol-1-yl)phenyl)-4-hydroxy-1-methylpyridin-2(1H)-one] yielded a GI50 in assay [1] of 30 to 300 nM. Also, the IC50 in assay [2] was in the range of 10 to 100 nM.
In assay [1], `Cc1cc(-c2ccc(-n3ccn(C)c3=O)c(C)c2)c(O)c(-c2cnc(C)c(N3CCN(C(C)(C)C)CC3)c2)n1` [Example 1019, 1-(4-(5′-(4-(tert-Butyl)piperazin-1-yl)-3-hydroxy-6,6′-dimethyl-[2,3′-bipyridin]-4-yl)-2-methylphenyl)-3-methyl-1,3-dihydro-2H-imidazol-2-one] gave a GI50 of 0.3 to 30 nM. Besides, the IC50 in assay [2] lay in the range of 1 to 10 nM.
The matching figures for `Cn1ccn(-c2ccc(-c3cnnc(-c4cccc(N5CCN(C(C)(C)C)CC5)c4)c3O)cc2Cl)c1=O` [Example 1020, 1-(4-(6-(3-(4-(tert-Butyl)piperazin-1-yl)phenyl)-5-hydroxypyridazin-4-yl)-2-chlorophenyl)-3-methyl-1H-imidazol-2(3H)-one]: 300 to 3000 nM and over 100 nM.
`Cn1ccn(-c2ccc(-c3cccc(-c4cccc(N5CCN(C(C)(C)C)CC5)c4)c3O)cc2Cl)c1=O` [Example 1021, 1-(3″-(4-(tert-butyl)piperazin-1-yl)-3-chloro-2′-hydroxy-[1,1′:3′,1″-terphenyl]-4-yl)-3-methyl-1H-imidazol-2(3H)-one] came in with a 50% growth inhibitory concentration (GI50) in assay [1] of 0.3 to 30 nM. Moreover, the half-maximal inhibitory concentration (IC50) in assay [2] fell in the range of 0.01 to 1 nM.
For `COc1ncc(-c2nc(C)cc(-c3ccc(-n4ccn(C)c4=O)c(Cl)c3)c2O)cc1N1CC[C@]2(CCN2C(C)C)C1` [Example 1022, (R)-1-(2-chloro-4-(3-hydroxy-5′-(1-isopropyl-1,6-diazaspiro[3.4]octan-6-yl)-6'-methoxy-6-methyl-[2,3′-bipyridin]-4-yl)phenyl)-3-methyl-1,3-dihydro-2H-imidazol-2-one], the GI50 in assay [1] fell in the range of 0.3 to 30 nM. Besides, in assay [2], the IC50 was 0.01 to 1 nM.
Regarding `COc1ncc(-c2nc(C)cc(-c3ccc(-n4ccn(C)c4=O)c(Cl)c3)c2O)cc1N1CC[C@@]2(CCN2C(C)C)C1` [Example 1023, (S)-1-(2-chloro-4-(3-hydroxy-5′-(1-isopropyl-1,6-diazaspiro[3.4]octan-6-yl)-6'-methoxy-6-methyl-[2,3′-bipyridin]-4-yl)phenyl)-3-methyl-1,3-dihydro-2H-imidazol-2-one], the GI50 in assay [1] lay in the range of 0.3 to 30 nM. The IC50 in assay [2] was 0.01 to 1 nM.
As for `Cn1ccn(-c2ccc(-c3cc(Cl)cc(-c4cccc(N5CCN(C(C)(C)C)CC5)c4)c3O)cc2Cl)c1=O` [Example 1024, 1-(3″-(4-(tert-butyl)piperazin-1-yl)-3,5′-dichloro-2′-hydroxy-[1,1′:3′,1″-terphenyl]-4-yl)-3-methyl-1H-imidazol-2(3H)-one], the GI50 in assay [1] was 0.3 to 30 nM. The IC50 in assay [2] lay in the range of 1 to 10 nM.
As for `Cn1ccn(-c2ccc(-c3cc(C(F)(F)F)cc(-c4cccc(N5CCN(C(C)(C)C)CC5)c4)c3O)cc2Cl)c1=O` [Example 1025, 1-(3″-(4-(tert-butyl)piperazin-1-yl)-3-chloro-2′-hydroxy-5′-(trifluoromethyl)-[1,1′:3′,1″-terphenyl]-4-yl)-3-methyl-1H-imidazol-2(3H)-one], the GI50 in assay [1] was in the range of 300 to 3000 nM. Also, the half-inhibitory concentration (IC50) in assay [2] lay within 1 to 10 nM.
In assay [1], `Cc1cc(-c2ccc(-n3ccn(C)c3=O)c(Cl)c2)c(O)c(-c2cc(F)c(F)c(N3CCN(C(C)(C)C)CC3)c2)n1` [Example 1026, 1-(4-(2-(3-(4-(tert-butyl)piperazin-1-yl)-4,5-difluorophenyl)-3-hydroxy-6-methylpyridin-4-yl)-2-chlorophenyl)-3-methyl-1H-imidazol-2(3H)-one] displayed a GI50 of 0.3 to 30 nM. The IC50 in assay [2] was in the range of 0.01 to 1 nM.
`Cc1cc(-c2ccc(-n3ccn(C)c3=O)c(Cl)c2)c(O)c(-c2cc(N3CCN(C(C)(C)C)CC3)cc(F)c2F)n1` [Example 1027, 1-(4-(2-(5-(4-(tert-butyl)piperazin-1-yl)-2,3-difluorophenyl)-3-hydroxy-6-methylpyridin-4-yl)-2-chlorophenyl)-3-methyl-1H-imidazol-2(3H)-one] had a GI50 in assay [1] of 0.3 to 30 nM. The IC50 in assay [2] lay in the range of 0.01 to 1 nM.
In assay [1], `COc1cc(-c2ccc(-n3ccn(C)c3=O)c(Cl)c2)c(O)c(-c2cccc(N3CCN(C(C)(C)C)CC3)c2)n1` [Example 1028, 1-(4-(2-(3-(4-(tert-Butyl)piperazin-1-yl)phenyl)-3-hydroxy-6-methoxypyridin-4-yl)-2-chlorophenyl)-3-methyl-1H-imidazol-2(3H)-one] had a GI50 of 0.3 to 30 nM. In addition, the IC50 in assay [2] was in the range of 1 to 10 nM.
In assay [1], `Cn1ccn(-c2ccc(-c3cc(F)nc(-c4cccc(N5CCN(C(C)(C)C)CC5)c4)c3O)cc2Cl)c1=O` [Example 1029, 1-(4-(2-(3-(4-(tert-Butyl)piperazin-1-yl)phenyl)-6-fluoro-3-hydroxypyridin-4-yl)-2-chlorophenyl)-3-methyl-1H-imidazol-2(3H)-one] displayed a GI50 of 0.3 to 30 nM. Further, the IC50 in assay [2] was in the range of 0.01 to 1 nM.
`Cn1cc(-c2cccc(N3CCN(C(C)(C)C)CC3)c2)c(O)c(-c2ccc(-n3ccn(C)c3=O)c(Cl)c2)c1=O` [Example 1030, 5-(3-(4-(tert-Butyl)piperazin-1-yl)phenyl)-3-(3-chloro-4-(3-methyl-2-oxo-2,3-dihydro-1H-imidazol-1-yl)phenyl)-4-hydroxy-1-methylpyridin-2(1H)-one] had a GI50 in assay [1] of 300 to 3000 nM. Besides, the IC50 in assay [2] was 10 to 100 nM.
As for `CNc1cc(-c2ccc(-n3ccn(C)c3=O)c(Cl)c2)c(O)c(-c2cccc(N3CCN(C(C)(C)C)CC3)c2)n1` [Example 1031, 1-(4-(2-(3-(4-(tert-Butyl)piperazin-1-yl)phenyl)-3-hydroxy-6-(methylamino)pyridin-4-yl)-2-chlorophenyl)-3-methyl-1H-imidazol-2(3H)-one], the GI50 in assay [1] lay within 30 to 300 nM. For the same compound, in assay [2], the half-maximal inhibitory concentration (IC50) lay in the range of 1 to 10 nM.
In the same order, the values of `Cc1cc(-c2ccc(-n3ccn(C)c3=O)c(Cl)c2)c(O)c(-c2ccnc(N3CCC4(CCC(=O)N4)C3)c2)n1` (centres unmarked) [Example 1032, 7-(4-(3-chloro-4-(3-methyl-2-oxo-2,3-dihydro-1H-imidazol-1-yl)phenyl)-3-hydroxy-6-methyl-[2,4′-bipyridin]-2′'-yl)-1,7-diazaspiro[4.4]nonan-2-one] are 0.3 to 30 nM and 0.01 to 1 nM.
The compound `Cc1cc(-c2ccc(-n3cc[nH]c3=O)c(Cl)c2)c(O)c(-c2cccc(N3CCN(C(C)(C)C)CC3)c2)n1` [Example 1035, 1-(4-(2-(3-(4-(tert-butyl)piperazin-1-yl)phenyl)-3-hydroxy-6-methylpyridin-4-yl)-2-chlorophenyl)-1,3-dihydro-2H-imidazol-2-one] yielded a 50% growth inhibitory concentration (GI50) in assay [1] of 30 to 300 nM. Besides, in assay [2], the IC50 was in the range of 10 to 100 nM.
Take `Cc1cc(-c2ccc(-n3ccn(C)c3=O)c(Cl)c2)c(O)c(-c2ccnc(N3CC(F)(F)[C@@](C)(O)C3)c2)n1` [Example 1036, (S)-1-(2-chloro-4-(2′-(3,3-difluoro-4-hydroxy-4-methylpyrrolidin-1-yl)-3-hydroxy-6-methyl-[2,4′-bipyridin]-4-yl)phenyl)-3-methyl-1,3-dihydro-2H-imidazol-2-one]: the 50% growth inhibitory concentration (GI50) in assay [1] was in the range of 30 to 300 nM. Moreover, in assay [2], the IC50 lay within 1 to 10 nM.
In the case of `Cc1cc(-c2ccc(-n3ccn(C)c3=O)c(Cl)c2)c(O)c(-c2ccnc(N3CC(F)(F)[C@](C)(O)C3)c2)n1` [Example 1037, (R)-1-(2-chloro-4-(2′-(3,3-difluoro-4-hydroxy-4-methylpyrrolidin-1-yl)-3-hydroxy-6-methyl-[2,4′-bipyridin]-4-yl)phenyl)-3-methyl-1,3-dihydro-2H-imidazol-2-one], the GI50 in assay [1] lay within 0.3 to 30 nM. The IC50 in assay [2] lay in the range of 1 to 10 nM.
In turn, `CC(C)(C)N1CCN(c2cccc(-c3nccc(-c4ccc(-n5cc[nH]c5=O)c(Cl)c4)c3O)c2)CC1` [Example 1038, 1-(4-(2-(3-(4-(tert-butyl)piperazin-1-yl)phenyl)-3-hydroxypyridin-4-yl)-2-chlorophenyl)-1H-imidazol-2(3H)-one] displayed a 50% growth inhibitory concentration (GI50) in assay [1] of 30 to 300 nM. For the same compound, the IC50 in assay [2] lay within 10 to 100 nM.
In assay [1], `COc1ncc(-c2nc(C)cc(-c3ccc(-n4ccn(C)c4=O)c(Cl)c3)c2O)cc1N1CC2CCC(C1)N2C(C)C` [Example 1039, 1-(2-chloro-4-(3-hydroxy-5′-(8-isopropyl-3,8-diazabicyclo[3.2.1]octan-3-yl)-6′-methoxy-6-methyl-[2,3′-bipyridin]-4-yl)phenyl)-3-methyl-1H-imidazol-2(3H)-one] came in with a GI50 of 0.3 to 30 nM. In addition, the IC50 in assay [2] lay within 1 to 10 nM.
`Cn1ccn(-c2ccc(-c3cc(=O)[nH]c(-c4cccc(N5CCN(C(C)(C)C)CC5)c4)c3O)cc2Cl)c1=O` [Example 1040, 6-(3-(4-(tert-Butyl)piperazin-1-yl)phenyl)-4-(3-chloro-4-(3-methyl-2-oxo-2,3-dihydro-1H-imidazol-1-yl)phenyl)-5-hydroxypyridin-2(1H)-one] had a GI50 in assay [1] of 300 to 3000 nM. For the same compound, the 50% inhibitory concentration (IC50) in assay [2] was 10 to 100 nM.

For the origin of these results see patent US20250179059A1 (The Regents of the University of California, priority 2021, published 2025).
